As a reminder, the IC50 is the point on the concentration scale where inhibition reaches its midpoint.

In this assay the target is human TRPA1 (Homo sapiens (Human), UniProt O75762). The experiment in a line: hTRPA1 CHO Ca2+ AUC EVO (IC50); FLIPR Tetra block of cinnamaldehyde induced calcium influx. It is filed as cell-based. Conditions: Table 3; CHO cells expressing TRPA1; 75 uM cinnamaldehyde (~EC80) as agonist. As for the experimental part: IC50 ([…]) of compounds on the human and rat TRPA1 channels were determined using a FLIPR Tetra instrument. CHO cells expressing TRPA1 were plated into 384-well plates, incubated overnight at 37° C., and loaded with BD calcium indicator dye for 1 hr at 37° C. followed by 15 minutes. at room temperature. The assay buffer was Hank's Balanced Salt Solution (HBSS) containing 20 mM HEPES (pH readjusted to 7.4) along with 0.02% BSA.
human TRPA1, sequence (O75762 whole entry): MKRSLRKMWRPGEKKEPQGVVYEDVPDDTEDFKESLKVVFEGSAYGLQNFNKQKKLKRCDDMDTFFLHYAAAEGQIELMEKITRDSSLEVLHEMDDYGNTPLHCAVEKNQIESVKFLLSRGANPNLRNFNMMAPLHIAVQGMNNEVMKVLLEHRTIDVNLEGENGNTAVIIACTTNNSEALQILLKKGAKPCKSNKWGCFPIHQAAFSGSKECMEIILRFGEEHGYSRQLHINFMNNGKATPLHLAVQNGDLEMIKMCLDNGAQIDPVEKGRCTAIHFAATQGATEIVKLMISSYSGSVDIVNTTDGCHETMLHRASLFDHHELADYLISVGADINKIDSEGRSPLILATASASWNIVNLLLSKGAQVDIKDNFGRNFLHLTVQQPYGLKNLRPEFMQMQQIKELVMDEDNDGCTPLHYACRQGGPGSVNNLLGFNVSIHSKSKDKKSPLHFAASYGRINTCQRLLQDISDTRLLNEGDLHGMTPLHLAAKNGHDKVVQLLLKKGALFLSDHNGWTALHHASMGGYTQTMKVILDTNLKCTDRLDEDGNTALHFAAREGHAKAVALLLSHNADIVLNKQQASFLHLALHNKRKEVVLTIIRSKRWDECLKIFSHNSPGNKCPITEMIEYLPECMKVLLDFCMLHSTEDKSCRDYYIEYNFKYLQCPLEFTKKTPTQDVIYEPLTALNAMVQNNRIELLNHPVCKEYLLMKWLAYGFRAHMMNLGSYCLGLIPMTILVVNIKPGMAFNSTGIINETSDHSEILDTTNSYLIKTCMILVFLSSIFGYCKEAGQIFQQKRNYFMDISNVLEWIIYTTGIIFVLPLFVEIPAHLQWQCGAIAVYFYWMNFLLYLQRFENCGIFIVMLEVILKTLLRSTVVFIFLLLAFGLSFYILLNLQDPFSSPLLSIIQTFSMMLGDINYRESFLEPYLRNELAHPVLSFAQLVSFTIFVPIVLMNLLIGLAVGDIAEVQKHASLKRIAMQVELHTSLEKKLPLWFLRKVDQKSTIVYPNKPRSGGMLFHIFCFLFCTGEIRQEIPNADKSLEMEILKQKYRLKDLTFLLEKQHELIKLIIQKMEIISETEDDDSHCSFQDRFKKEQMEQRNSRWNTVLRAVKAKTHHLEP
Following dye load and plate cool down, compounds were added to the cells using FLIPR Tetra. Plates were then incubated with compounds for 20 minutes at room temperature prior to adding agonist. Following this incubation, ˜EC80 concentration of cinnamaldehyde (75 uM for human TRPA1 and 45 uM for rat TRPA1) was added to active the channels and block of cinnamaldehyde induced calcium influx was measured.
IC50 values were fit with a standard Hill function, keeping the Hill coefficient (n) fixed to 1.5. Fixing the Hill coefficient will generally reduce variability of the IC50 determination. The IC50 values were individually examined to make sure the MIN and MAX points were set correctly prior to validation of the results.
In the case of `O=C(NCc1cc(-c2cnc(C(F)(F)F)nc2)ncc1Br)[C@@H]1C2CC(C2)N1S(=O)(=O)c1ccc(F)cc1` [compound 14, (2S)-N-[[5-bromo-2-[2-(trifluoromethyl)pyrimidin-5-yl]-4-pyridyl]methyl]-3-(4-fluorophenyl)sulfonyl-3-azabicyclo[2.1.1]hexane-2-carboxamide], the IC50 came to 3.82 nM.
In the case of `O=C(NCc1cc(-c2cnc(C(F)(F)F)nc2)ncc1OC(F)(F)F)[C@@H]1C2CC(C2)N1S(=O)(=O)c1ccc(F)cc1` [compound 15, (2S)-3-(4-fluorophenyl)sulfonyl-N-[[5-(trifluoromethoxy)-2-[2-(trifluoromethyl)pyrimidin-5-yl]-4-pyridyl]methyl]-3-azabicyclo[2.1.1]hexane-2-carboxamide], the IC50 was found to be 2.77 nM.
On to `O=C(NCc1cc(-c2cnc(C(F)(F)F)nc2)ccc1F)[C@@H]1C2CC(C2)N1S(=O)(=O)c1ccc(F)cc1` [compound 16, (2S)-3-(4-fluorophenyl)sulfonyl-N-[[2-fluoro-5-[2-(trifluoromethyl)pyrimidin-5-yl]phenyl]methyl]-3-azabicyclo[2.1.1]hexane-2-carboxamide], for which the IC50 came to 9.89 nM.
Regarding `O=C(NCc1cc(-c2ccc(C(F)(F)F)nc2)ccc1F)[C@@H]1C2CC(C2)N1S(=O)(=O)c1ccc(F)cc1` [compound 17, (2S)-3-(4-fluorophenyl)sulfonyl-N-[[2-fluoro-5-[6-(trifluoromethyl)-3-pyridyl]phenyl]methyl]-3-azabicyclo[2.1.1]hexane-2-carboxamide], the IC50 worked out at 6.06 nM.
For the molecule `Cn1nc(C(F)(F)F)cc1-c1ccc(F)c(CNC(=O)[C@@H]2C3CC(C3)N2S(=O)(=O)c2ccc(F)cc2)c1` [compound 18, (2S)-N-[[2-fluoro-5-[2-methyl-5-(trifluoromethyl)pyrazol-3-yl]phenyl]methyl]-3-(4-fluorophenyl)sulfonyl-3-azabicyclo[2.1.1]hexane-2-carboxamide], the IC50 is 15.7 nM.
Under `O=C(NCc1cc(F)cc(-c2cnc(C(F)(F)F)nc2)c1)[C@@H]1C2CC(C2)N1S(=O)(=O)c1ccc(F)cc1` [compound 19, (2S)-3-(4-fluorophenyl)sulfonyl-N-[[3-fluoro-5-[2-(trifluoromethyl)pyrimidin-5-yl]phenyl]methyl]-3-azabicyclo[2.1.1]hexane-2-carboxamide] stands 8.97 nM; under `O=C(NCc1cc(F)cc(-c2ccc(C(F)(F)F)nc2)c1)[C@@H]1C2CC(C2)N1S(=O)(=O)c1ccc(F)cc1` [compound 20, (2S)-3-(4-fluorophenyl)sulfonyl-N-[[3-fluoro-5-[6-(trifluoromethyl)-3-pyridyl]phenyl]methyl]-3-azabicyclo[2.1.1]hexane-2-carboxamide], 6.11 nM; under `Cn1nc(C(F)(F)F)cc1-c1cc(F)cc(CNC(=O)[C@@H]2C3CC(C3)N2S(=O)(=O)c2ccc(F)cc2)c1` [compound 21, (2S)-N-[[3-fluoro-5-[2-methyl-5-(trifluoromethyl)pyrazol-3-yl]phenyl]methyl]-3-(4-fluorophenyl)sulfonyl-3-azabicyclo[2.1.1]hexane-2-carboxamide], 27.6 nM.
In the case of `O=C(NCc1cn(-c2cnc(C(F)(F)F)nc2)nc1C(F)(F)F)[C@@H]1C2CC(C2)N1S(=O)(=O)c1ccc(F)cc1` [compound 29, (2S)-3-(4-fluorophenyl)sulfonyl-N-[[3-(trifluoromethyl)-1-[2-(trifluoromethyl)pyrimidin-5-yl]pyrazol-4-yl]methyl]-3-azabicyclo[2.1.1]hexane-2-carboxamide], the IC50 came to 4.84 nM.
Under `O=C(NCc1cc(-c2cnc(C(F)(F)F)nc2)nc(C(F)(F)F)n1)[C@@H]1C2CC(C2)N1S(=O)(=O)c1ccc(F)cc1` [compound 30, (2S)-3-(4-fluorophenyl)sulfonyl-N-[[2-(trifluoromethyl)-6-[2-(trifluoromethyl)pyrimidin-5-yl]pyrimidin-4-yl]methyl]-3-azabicyclo[2.1.1]hexane-2-carboxamide] stands 1.18 nM; under `O=C(NCc1cc(-c2cnc(C(F)(F)F)nc2)ncc1C(F)(F)F)[C@@H]1C2CC(C2)N1S(=O)(=O)c1cc2cc(F)ccc2o1` [compound 31, (2S)-3-(5-fluorobenzofuran-2-yl)sulfonyl-N-[[5-(trifluoromethyl)-2-[2-(trifluoromethyl)pyrimidin-5-yl]-4-pyridyl]methyl]-3-azabicyclo[2.1.1]hexane-2-carboxamide], 1.85 nM; under `O=C(NCc1cc(-c2cnc(C(F)(F)F)nc2)cc(C2CC2)n1)[C@@H]1C2CC(C2)N1S(=O)(=O)c1ccc(F)cc1` [compound 32, (2S)-N-[[6-cyclopropyl-4-[2-(trifluoromethyl)pyrimidin-5-yl]-2-pyridyl]methyl]-3-(4-fluorophenyl)sulfonyl-3-azabicyclo[2.1.1]hexane-2-carboxamide], 7.24 nM.
`O=C(NCc1cc(-c2cnc(C(F)(F)F)nc2)nc(C2CC2)c1)[C@@H]1C2CC(C2)N1S(=O)(=O)c1ccc(F)cc1` [compound 33, (2S)-N-[[2-cyclopropyl-6-[2-(trifluoromethyl)pyrimidin-5-yl]-4-pyridyl]methyl]-3-(4-fluorophenyl)sulfonyl-3-azabicyclo[2.1.1]hexane-2-carboxamide]: the IC50 is 3.55 nM.
Consider `COc1nn(-c2cnc(C(F)(F)F)nc2)cc1CNC(=O)[C@@H]1C2CC(C2)N1S(=O)(=O)c1ccc(F)cc1` [compound 34, (2S)-3-(4-fluorophenyl)sulfonyl-N-[[3-methoxy-1-[2-(trifluoromethyl)pyrimidin-5-yl]pyrazol-4-yl]methyl]-3-azabicyclo[2.1.1]hexane-2-carboxamide], for which the IC50 is 19.1 nM.
For `O=C(NCc1cc(-c2cnc(C(F)(F)F)nc2)nc(OCC(F)(F)F)n1)[C@@H]1C2CC(C2)N1S(=O)(=O)c1ccc(F)cc1` [compound 35, (2S)-3-(4-fluorophenyl)sulfonyl-N-[[2-(2,2,2-trifluoroethoxy)-6-[2-(trifluoromethyl)pyrimidin-5-yl]pyrimidin-4-yl]methyl]-3-azabicyclo[2.1.1]hexane-2-carboxamide], the IC50 turned out to be 4.24 nM.
